Results published in US10040781B2, “Tank-binding kinase inhibitor compounds” (Gilead Sciences, Inc., priority 2014, dated 2018).

Key:
IKKε = IKKε (Homo sapiens (Human), UniProt Q14164); experiment: IKKε TR-FRET enzymatic assay; assay type: biochemical; details: read-out: IKKe IC50
TBK1 = TBK1 (Homo sapiens (Human), UniProt Q9UHD2); experiment: TBK1 TR-FRET enzymatic assay;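 note: phosphorylation of a biotinylated Ser/Thr peptide by purified full-length recombinant TBK1, read by TR-FRET after 240 min at 25 °C, IC50 is the geometric mean of at least four runs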
TBK1, sequence (Q9UHD2 whole entry): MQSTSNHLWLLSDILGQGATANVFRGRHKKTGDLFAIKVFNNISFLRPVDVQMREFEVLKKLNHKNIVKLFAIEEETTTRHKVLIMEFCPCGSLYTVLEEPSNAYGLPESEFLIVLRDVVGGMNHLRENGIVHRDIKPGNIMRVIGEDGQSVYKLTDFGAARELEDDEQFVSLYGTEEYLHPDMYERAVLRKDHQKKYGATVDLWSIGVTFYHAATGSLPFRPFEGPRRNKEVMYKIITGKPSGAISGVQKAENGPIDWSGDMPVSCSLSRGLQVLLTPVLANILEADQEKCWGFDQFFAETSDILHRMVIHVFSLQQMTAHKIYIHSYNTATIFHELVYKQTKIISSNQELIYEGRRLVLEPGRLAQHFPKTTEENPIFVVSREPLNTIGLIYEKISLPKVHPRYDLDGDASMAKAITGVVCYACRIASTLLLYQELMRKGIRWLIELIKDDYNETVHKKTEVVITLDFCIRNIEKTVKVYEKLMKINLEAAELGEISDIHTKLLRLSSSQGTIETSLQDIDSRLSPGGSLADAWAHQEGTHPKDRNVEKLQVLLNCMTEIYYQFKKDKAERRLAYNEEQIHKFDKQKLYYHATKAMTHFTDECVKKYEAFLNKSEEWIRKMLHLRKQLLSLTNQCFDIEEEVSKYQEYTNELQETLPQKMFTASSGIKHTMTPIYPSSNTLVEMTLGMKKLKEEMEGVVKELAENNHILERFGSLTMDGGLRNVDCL

hJAK2 = hJAK2 (Homo sapiens (Human), UniProt O60674); experiment: hJAK2 LANCE TR-FRET enzymatic assay; assay type: biochemical; details: read-out: JAK2 IC50
hJAK2, sequence (O60674 whole entry): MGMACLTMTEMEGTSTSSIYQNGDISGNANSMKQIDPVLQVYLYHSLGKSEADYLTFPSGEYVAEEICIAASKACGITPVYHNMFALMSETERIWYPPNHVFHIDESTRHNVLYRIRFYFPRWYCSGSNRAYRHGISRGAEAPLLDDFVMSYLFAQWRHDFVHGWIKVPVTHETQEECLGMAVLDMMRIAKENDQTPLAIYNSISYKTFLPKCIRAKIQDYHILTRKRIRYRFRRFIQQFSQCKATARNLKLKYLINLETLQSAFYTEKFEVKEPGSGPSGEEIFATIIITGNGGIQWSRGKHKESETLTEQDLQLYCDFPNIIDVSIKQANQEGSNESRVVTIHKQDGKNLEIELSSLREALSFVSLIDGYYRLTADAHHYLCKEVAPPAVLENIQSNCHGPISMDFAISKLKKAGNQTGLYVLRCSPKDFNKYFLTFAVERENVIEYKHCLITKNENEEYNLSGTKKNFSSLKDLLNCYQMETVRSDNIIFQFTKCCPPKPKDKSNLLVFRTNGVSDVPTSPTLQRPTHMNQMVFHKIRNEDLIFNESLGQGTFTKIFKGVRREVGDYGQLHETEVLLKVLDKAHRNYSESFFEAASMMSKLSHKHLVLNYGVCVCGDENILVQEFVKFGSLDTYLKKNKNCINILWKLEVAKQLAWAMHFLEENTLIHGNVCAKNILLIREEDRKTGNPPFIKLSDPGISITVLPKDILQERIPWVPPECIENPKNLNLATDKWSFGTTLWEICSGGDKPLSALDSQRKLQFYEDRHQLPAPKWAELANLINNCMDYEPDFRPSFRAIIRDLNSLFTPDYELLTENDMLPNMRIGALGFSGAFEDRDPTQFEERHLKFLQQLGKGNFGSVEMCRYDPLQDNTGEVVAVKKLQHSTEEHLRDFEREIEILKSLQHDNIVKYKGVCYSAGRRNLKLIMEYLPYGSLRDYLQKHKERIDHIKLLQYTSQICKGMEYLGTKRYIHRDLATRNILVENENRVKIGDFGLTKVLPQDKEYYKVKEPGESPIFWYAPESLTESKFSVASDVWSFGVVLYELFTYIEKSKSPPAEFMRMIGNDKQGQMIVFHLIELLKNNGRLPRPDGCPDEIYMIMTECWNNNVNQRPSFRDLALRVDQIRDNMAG

IKKε, sequence (Q14164 whole entry): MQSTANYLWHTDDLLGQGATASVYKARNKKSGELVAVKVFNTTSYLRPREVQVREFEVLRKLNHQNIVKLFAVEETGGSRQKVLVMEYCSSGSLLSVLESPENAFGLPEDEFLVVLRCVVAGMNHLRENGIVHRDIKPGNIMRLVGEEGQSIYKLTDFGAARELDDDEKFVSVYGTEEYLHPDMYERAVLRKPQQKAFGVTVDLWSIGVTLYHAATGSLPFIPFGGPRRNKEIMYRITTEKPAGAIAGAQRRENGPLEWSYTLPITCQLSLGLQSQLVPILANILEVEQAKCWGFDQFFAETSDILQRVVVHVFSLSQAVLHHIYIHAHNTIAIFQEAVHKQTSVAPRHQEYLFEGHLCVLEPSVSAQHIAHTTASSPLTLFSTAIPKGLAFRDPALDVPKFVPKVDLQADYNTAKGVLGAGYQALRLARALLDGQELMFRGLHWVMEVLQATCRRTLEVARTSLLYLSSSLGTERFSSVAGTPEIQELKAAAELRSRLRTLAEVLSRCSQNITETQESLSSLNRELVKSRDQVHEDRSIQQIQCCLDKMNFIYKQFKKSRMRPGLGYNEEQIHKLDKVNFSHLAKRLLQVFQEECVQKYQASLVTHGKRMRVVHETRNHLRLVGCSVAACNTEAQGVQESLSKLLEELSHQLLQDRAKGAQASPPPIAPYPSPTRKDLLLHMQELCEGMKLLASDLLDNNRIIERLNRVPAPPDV

SMILES | IC50 (IKKε) [nM] | IC50 (TBK1) [nM] | IC50 (hJAK2) [nM]
N#Cc1cc(-c2ncnc(Nc3ccc(N4CCN(C5COC5)CC4)cc3)n2)ccc1OC1CCCOC1 (stereo not drawn) [Example 34, 5-(4-((4-(4-(oxetan-3-yl)piperazin-1-yl)phenyl)amino)-1,3,5-triazin-2-yl)-2-((tetrahydro-2H-pyran-3-yl)oxy)benzonitrile] | 45 | 12 | > 1000
N#Cc1cc(-c2ncnc(Nc3ccc(N4CCN(C5COC5)CC4)cc3)n2)ccc1N1CC(O)C1 [Example 35, 2-(3-hydroxyazetidin-1-yl)-5-(4-((4-(4-(oxetan-3-yl)piperazin-1-yl)phenyl)amino)-1,3,5-triazin-2-yl)benzonitrile] | 29 | 7 | 166
N#Cc1cc(Nc2ncnc(-c3ccc(OC4CCOCC4)c(C#N)c3)n2)ccc1OC1CCOCC1 [Example 36, 5-((4-(3-cyano-4-((tetrahydro-2H-pyran-4-yl)oxy)phenyl)-1,3,5-triazin-2-yl)amino)-2-((tetrahydro-2H-pyran-4-yl)oxy)benzonitrile] | 12 | 10 | > 1000
N#Cc1cc(-c2ncnc(Nc3ccc(N4CCN(C5COC5)CC4)c(C#N)c3)n2)ccc1OC1CCOCC1 [Example 38, 5-((4-(3-cyano-4-((tetrahydro-2H-pyran-4-yl)oxy)phenyl)-1,3,5-triazin-2-yl)amino)-2-(4-(oxetan-3-yl)piperazin-1-yl)benzonitrile] | 6 | 3 | > 1000
C=CC(=O)Nc1ccc(Nc2ncnc(-c3ccc(OC4CCOCC4)c(C#N)c3)n2)cc1 [Example 39, N-(4-((4-(3-cyano-4-((tetrahydro-2H-pyran-4-yl)oxy)phenyl)-1,3,5-triazin-2-yl)amino)phenyl)acrylamide] | 35 | 6 | > 1000
CC(C)(O)c1ccc(Nc2ncnc(-c3ccc(OC4CCOCC4)c(C#N)c3)n2)cc1 [Example 40, 5-(4-((4-(2-hydroxypropan-2-yl)phenyl)amino)-1,3,5-triazin-2-yl)-2-((tetrahydro-2H-pyran-4-yl)oxy)benzonitrile] | 23 | 6 | > 1000
CNC(=O)N1CCC(Oc2ccc(-c3ncnc(Nc4ccc(N5CCN(C6COC6)CC5)cc4)n3)cc2C#N)CC1 [Example 41, 4-(2-cyano-4-(4-((4-(4-(oxetan-3-yl)piperazin-1-yl)phenyl)amino)-1,3,5-triazin-2-yl)phenoxy)-N-methylpiperidine-1-carboxamide] | 110 | 35 | > 1000
N#Cc1cc(-c2ncnc(Nc3ccc(N4CCOCC4)cc3)n2)ccc1NC(=O)C1CC1 [Example 42, N-(2-cyano-4-(4-((4-morpholinophenyl)amino)-1,3,5-triazin-2-yl)phenyl)cyclopropanecarboxamide] | 71 | 35 | 24
N#Cc1cc(-c2ncnc(Nc3ccc(N4CCN(C5COC5)CC4)nc3)n2)ccc1OC1CCOCC1 [Example 43, 5-(4-((6-(4-(oxetan-3-yl)piperazin-1-yl)pyridin-3-yl)amino)-1,3,5-triazin-2-yl)-2-((tetrahydro-2H-pyran-4-yl)oxy)benzonitrile] | 15 | 7 | > 1000
CC(C)(O)C(=O)N1CCC(Oc2ccc(-c3ncnc(Nc4ccc(N5CCN(C6COC6)CC5)cc4)n3)cc2C#N)CC1 [Example 45, 2-((1-(2-hydroxy-2-methylpropanoyl)piperidin-4-yl)oxy)-5-(4-((4-(4-(oxetan-3-yl)piperazin-1-yl)phenyl)amino)-1,3,5-triazin-2-yl)benzonitrile] | 243 | 202 | > 1000
CC(C)NC(=O)c1ccc(Nc2ncnc(-c3ccc(OC4CCOCC4)c(C#N)c3)n2)cc1 [Example 46, 4-((4-(3-cyano-4-((tetrahydro-2H-pyran-4-yl)oxy)phenyl)-1,3,5-triazin-2-yl)amino)-N-isopropylbenzamide] | 9 | 3 | 670
